In patent publication US20230124720A1, “APPLICATION OF ACRIDINEDIONE COMPOUND IN PREPARATION OF ANTI-DIABETIC DRUGS” (THE FOURTH MILITARY MEDICAL UNIVERSITY, priority 2020, published 2023):

What was measured:
STZ-induced T2DM rats [1] = test: Insulin tolerance test (ITT) in T2DM rats; format: in vivo, rat
Protocol: 150 male SD rats, housed in cages in a clean constant temperature (23±2° C.) and humidity (55±10%) animal house, were manually adjusted on a daily 12 h/12 h diurnal light cycle with free access to water. After 3 days of adaptive feeding, 150 rats were randomly divided into normal and model groups. The normal (Con, n=15) group of rats remained on raw chow and the model group (n=135) of rats were given high fat high sugar chow. All rats were fed twice daily and the amount of feed was adjusted as needed to ensure adequate feed. After 8 weeks of group feeding, the model group rats were given an intraperitoneal injection of 25 mg/kg STZ solution with a 12 h fast prior to injection. After injection, feeding was continued as in the original method, blood was taken from the tail vein at 72 h for blood glucose measurement, and rats with fasting blood glucose levels ≥11.1 mmol/L on different days were screened for successful artificial induction of T2DM and administered in groups for the next experiment. 135 rats with successful modeling were randomly divided into 9 groups: […] (2) 0.01 mg/kg ADD-16 administration group (ADD I, n=15): daily administration of 0.01 mg/kg ADD-16 solution by gavage; (3) 0.1 mg/kg ADD-16 administration group (ADD II, n=15): daily administration of a 0.1 mg/kg ADD-16 solution by gavage; (4) 1 mg/kg ADD-16 administration group (ADD III, n=15): daily administration of a 1 mg/kg ADD-16 solution by gavage; (5) 3 mg/kg ADD-16 administration group (ADD IV, n=15): daily administration of a 3 mg/kg ADD-16 solution by gavage; (6) 10 mg/kg ADD-16 administration group (ADD V, n=15): daily administration of a 10 mg/kg ADD-16 solution by gavage; (7) 50 mg/kg ADD-16 administration group (ADD VI, n=15): daily administration of a 50 mg/kg ADD-16 solution by gavage; […] (9) Sitagliptin control group (ST, n=15): daily administration of a 6 mg/kg sitagliptin solution by gavage. […] Relevant indicators of lipid metabolism were measured after the end of the study. […] After the 120 min blood glucose value determination was completed, the diet was resumed. In the test, the condition of the rats was observed, and when abnormalities occurred, the experiment was stopped in time and a glucose solution was given by gavage to prevent death due to hypoglycemia.

STZ-induced T2DM rats [2] = test: Postprandial blood glucose in STZ-induced T2DM rats; format: in vivo, rat; details: end of administration
Protocol: 150 male SD rats, housed in cages in a clean constant temperature (23±2° C.) and humidity (55±10%) animal house, were manually adjusted on a daily 12 h/12 h diurnal light cycle with free access to water. After 3 days of adaptive feeding, 150 rats were randomly divided into normal and model groups. The normal (Con, n=15) group of rats remained on raw chow and the model group (n=135) of rats were given high fat high sugar chow. All rats were fed twice daily and the amount of feed was adjusted as needed to ensure adequate feed. After 8 weeks of group feeding, the model group rats were given an intraperitoneal injection of 25 mg/kg STZ solution with a 12 h fast prior to injection. After injection, feeding was continued as in the original method, blood was taken from the tail vein at 72 h for blood glucose measurement, and rats with fasting blood glucose levels ≥11.1 mmol/L on different days were screened for successful artificial induction of T2DM and administered in groups for the next experiment. 135 rats with successful modeling were randomly divided into 9 groups: […] (2) 0.01 mg/kg ADD-16 administration group (ADD I, n=15): daily administration of 0.01 mg/kg ADD-16 solution by gavage; (3) 0.1 mg/kg ADD-16 administration group (ADD II, n=15): daily administration of a 0.1 mg/kg ADD-16 solution by gavage; (4) 1 mg/kg ADD-16 administration group (ADD III, n=15): daily administration of a 1 mg/kg ADD-16 solution by gavage; (5) 3 mg/kg ADD-16 administration group (ADD IV, n=15): daily administration of a 3 mg/kg ADD-16 solution by gavage; (6) 10 mg/kg ADD-16 administration group (ADD V, n=15): daily administration of a 10 mg/kg ADD-16 solution by gavage; (7) 50 mg/kg ADD-16 administration group (ADD VI, n=15): daily administration of a 50 mg/kg ADD-16 solution by gavage; […] (9) Sitagliptin control group (ST, n=15): daily administration of a 6 mg/kg sitagliptin solution by gavage. […] Relevant indicators of lipid metabolism were measured after the end of the study.

MIN6 cells [3] = test: Insulin secretion in PA-induced insulin-resistant MIN6 cells; format: cell-based, mouse; details: PA-induced IR model, 10 μmol/L, 24 h, 2.8 and 16.7 mmol/L glucose; P<0.001
Protocol: MIN6 cells were seeded in 24-well plates and cultured as described in step 2.1 to a cell confluency of more than 80% and administrated in the following groups, with 12 replicates per group: (1) normal control group (Con): cultured with blank 1640 medium; (2) insulin resistance model panel (IR): treated with 0.125 mmol/L PA for 24 h to induce establishment of an insulin resistance model; (3) ADD-16 administration group (ADD): 10 μmol/L ADD-16 intervention was administered for 24 h after successful establishment of the insulin resistance model; (4) TAK875 control group (TAK875): 10 μmol/L TAK875 was administered as a positive control drug intervention for 24 h after successful establishment of the insulin resistance model; (5) metformin control group (MT): 10 mmol/L metformin was administered as a positive control drug intervention for 24 h after successful establishment of the insulin resistance model; (6) sitagliptin control group (ST): 10 μmol/L sitagliptin was administered as a positive control drug intervention for 24 h after successful establishment of the insulin resistance model. After the group administration, the medium was aspirated and washed 2 times with a KRB buffer without sugar, followed by the addition of the KRB buffer without sugar. […] After incubation at 37° C. for 1 h, all the medium in the wells was aspirated and centrifuged at 2000 rmp/min for 20 min, and the supernatant was collected and stored at −20° C. The insulin content was measured for each group.

MIN6 cells [4] = test: Western Blot / immunofluorescence of insulin signaling related molecules in insulin-resistant MIN6 cells; format: cell-based, mouse; details: insulin-resistant MIN6 cells, 24 h, P<0.001
Protocol: MIN6 cells were seeded in culture dishes at the appropriate density and cultured as described in step 2.1 to a confluency of about 80%. Cells were divided into the following 5 groups: (1) normal control group (Con): cultured with blank 1640 medium; (2) insulin resistance model panel (IR): treatment with 0.125 mmol/L PA for 24 h to induce establishment of a MIN6 cell insulin resistance model; (3) 3 μmol/L ADD-16 administration group (ADD I): 3 μmol/L ADD-16 intervention was given for 24 h after successful establishment of the insulin resistance model; (4) 10 μmol/L ADD-16 administration group (ADD II): 10 μmol/L ADD-16 intervention was given for 24 h after successful establishment of the insulin resistance model; (5) TAK875 control group (TAK875): 10 μmol/L TAK875 was administered as a positive control drug intervention for 24 h after successful establishment of the insulin resistance model. At the end of the group administration, groups of cells were harvested for WB or IF experiments.

[5] = ST group, 6 mg/kg daily by gavage
[6] = MT group, 250 mg/kg daily by gavage

| SMILES | decrease of ITT AUC compared to the TD group (STZ-induced T2DM rats [1]; [5]) | reduction in blood glucose compared to the TD group (STZ-induced T2DM rats [2]; [5]) | insulin secretion level in insulin-resistant MIN6 cells (in words) (MIN6 cells [3]) | decrease of ITT AUC compared to the TD group (STZ-induced T2DM rats [1]; [6]) | reduction in blood glucose compared to the TD group (STZ-induced T2DM rats [2]; [6]) | expression of insulin signaling-related molecules, Western Blot (in words) (MIN6 cells [4]) |
| --- | --- | --- | --- | --- | --- | --- |
| N[C@@H](CC(=O)N1CCn2c(nnc2C(F)(F)F)C1)Cc1cc(F)c(F)cc1F [sitagliptin, reference compound] | 51.4% | 61.5% | even higher than in Con group |  |  |  |
| CN(C)C(=N)N=C(N)N [metformin, reference compound] |  |  |  | 39.9% | 45.0% |  |
| Cc1cc(OCCCS(C)(=O)=O)cc(C)c1-c1cccc(COc2ccc3c(c2)OC[C@H]3CC(=O)O)c1 [TAK875, reference compound] |  |  | even higher than in Con group |  |  | upregulate GPR40, PGC-1α, P-P38, P-EP300, PPARγ, P-AKT, PI3K, IRS1 and GLUT4 expression |
